Results on nine compounds are retold here after patent EP0350946A2 (priority 1988, dated 1990).

Structures are written as SMILES. Like-named read-outs stand apart in the source and are kept apart here.

In test [1] the test system is Phytophthora infestans. Type of test: in vivo, tomato (var: Ponte Rosa). The following applies: sprayed the day after inoculation, observed after 5 days, percent disease control.
Test [2] has as its system Pseudoperonospora cubensis. In words: Curative effect on downy mildew of cucumber. The test is classed as in vivo, cucumber (var: Sagamihanjiro). The following applies: sprayed the day after inoculation, observed after 8 days, percent disease control. From the text: (§1) Typical test data indicating the excellent fungicidal activity of the amide compounds (I) are shown below. The assessment data are converted to percent disease control. 100 % means no infection; 0 % means that the plant are totally infected compared with the control plant.
A plastic pot was filled with sandy soil, and seeds of cucumber (var: Sagamihanjiro) were sowed therein, followed by cultivation in a greenhouse for 14 days. A spore suspension of Pseudoperonospora cubensis was inoculated by spreading over the seedlings of the test plants, which were then allowed to stand at 20°C overnight under a humid condition. The test compound formulated in a wettable powder according to Formulation Example 1 and diluted with water to a prescribed concentration was thoroughly sprayed over the test plants, which were further grown for 8 days under illumination and observed.

The subject of test [3] is Plasmopara viticola. In words: Curative effect on downy mildew of grapes. Type of test: in vivo, grapes (var: Bailey-A). The following applies: sprayed the day after inoculation, observed after 8 days, percent disease control.
Description: as §1
A plastic pot was filled with sandy soil, and seeds of grapes (var: Bailey-A) were sowed therein, followed by cultivation in a greenhouse for 50 days. A spore suspension of Plasmopara viticola was inoculated by spreading over the seedlings at the 6 to 7 leaf-stage of the test plants, which were then allowed to stand at 20°C overnight under a humid condition. The test compound formulated in a wettable powder according to Formulation Example 1 and diluted with water to a prescribed concentration was thoroughly sprayed over the test plants, which were further grown for 8 days under illumination and observed.

`CCCc1nc(C)sc1C(=O)NC(C#N)OCC` (centres unmarked) [Compound 13, 2-ethoxy-2-(4-n-propyl-2-methylthiazole-5-carboxamino)acetonitrile]: the “Curative effect Tomato” value in test [1] (100 ppm) is reported as 90%; in test [1] (200 ppm), 95%. In addition, the figures for the “Curative effect Cucumber” value in test [2] (100 ppm) and in test [2] (200 ppm) were 90% and 95%, respectively. Moreover, in test [3] (200 ppm), the “Curative effect Grape” value is 90%.
As to `CCOC(C#N)NC(=O)c1sc(C)nc1C(C)C` (centres unmarked) [Compound 14, 2-ethoxy-2-(4-isopropyl-2-methylthiazole-5-carboxamino)acetonitrile], the “Curative effect Tomato” value in test [1] (100 ppm) and in test [1] (200 ppm) was 100% each time. In addition, the “Curative effect Cucumber” value in test [2] (100 ppm) and in test [2] (200 ppm) was 100% in each case. Moreover, the “Curative effect Grape” value worked out at 90% in test [3] (100 ppm) and 100% in test [3] (200 ppm).
In the case of `CCSC(C#N)NC(=O)c1sc(C)nc1CC` (centres unmarked) [Compound 12, 2-ethylthio-2-(4-ethyl-2-methylthiazole-5-carboxamino)acetonitrile], the “Curative effect Tomato” value in test [1] (100 ppm) is given as 95%; in test [1] (200 ppm) it was 100%. Also, the “Curative effect Cucumber” value turned out to be 90% in test [2] (100 ppm) and 100% in test [2] (200 ppm). Also, the “Curative effect Grape” value is reported as 90% in test [3] (100 ppm) and 100% in test [3] (200 ppm).
With `CCc1nc(C)sc1C(=O)NC(C#N)OCCC#N` (centres unmarked) [Compound 11, 2-(2-cyanoethoxy)-2-(4-ethyl-2-methylthiazole-5-carboxamino)acetonitrile], the “Curative effect Tomato” value in test [1] (100 ppm) and in test [1] (200 ppm) was 100% throughout. The “Curative effect Cucumber” value in test [2] (100 ppm) is 90%; in test [2] (200 ppm), 100%. Besides, the “Curative effect Grape” value in test [3] (100 ppm) and in test [3] (200 ppm) was 100% throughout.
With `CCCOC(C#N)NC(=O)c1sc(C)nc1CC` (centres unmarked) [Compound 7, 2-n-propoxy-2-(4-ethyl-2-methylthiazole-5-carboxamino)acetonitrile], the “Curative effect Tomato” value in test [1] (100 ppm) and in test [1] (200 ppm) was 100% throughout. The results for the “Curative effect Cucumber” value in test [2] (100 ppm) and in test [2] (200 ppm) were 90% and 100%, respectively. Moreover, the “Curative effect Grape” value in test [3] (100 ppm) is on record as 90%; in test [3] (200 ppm), 100%.
Turning to `CCOC(C#N)NC(=O)c1sc(C)nc1C` (centres unmarked) [Compound 2, 2-ethoxy-2-(2,4-dimethylthiazole-5-carboxamino)acetonitrile], the “Curative effect Tomato” value in test [1] (100 ppm) was 95%; in test [1] (200 ppm), 100%. In addition, the “Curative effect Cucumber” value amounted to 95% in test [2] (100 ppm) and 100% in test [2] (200 ppm). Besides, the “Curative effect Grape” value in test [3] (100 ppm) and in test [3] (200 ppm) was 100% throughout.
In the case of `C#CCCOC(C#N)NC(=O)c1sc(C)nc1CC` (centres unmarked) [Compound 10, 2-(butynyl-3-oxy)-2-(4-ethyl-2-methylthiazole-5-carboxamino)acetonitrile], the “Curative effect Tomato” value in test [1] (100 ppm) is 95%; in test [1] (200 ppm) it was 100%. Further, the “Curative effect Cucumber” value worked out at 95% in test [2] (100 ppm) and 100% in test [2] (200 ppm). Further, the “Curative effect Grape” value in test [3] (100 ppm) came out at 90%; in test [3] (200 ppm), 100%.
`C#CCCOC(C#N)NC(=O)c1sc(C)nc1C` (centres unmarked) [Compound 4, 2-(butynyl-3-oxy)-2-(2,4-dimethylthiazole-5-carboxamino)acetonitrile]: the “Curative effect Tomato” value in test [1] (100 ppm) came to 90%; in test [1] (200 ppm), 100%. The “Curative effect Cucumber” value in test [2] (200 ppm) is 100%. Also, the “Curative effect Grape” value in test [3] (200 ppm) is listed as 100%.
With `CCOC(C#N)NC(=O)c1sc(C)nc1CC` (centres unmarked) [Compound 6, 2-ethoxy-2-(4-ethyl-2-methylthiazole-5-carboxamino)acetonitrile], the “Curative effect Tomato” value in test [1] (100 ppm) and in test [1] (200 ppm) was 100% each time. In addition, the “Curative effect Cucumber” value in test [2] (200 ppm) amounted to 100%. The “Curative effect Grape” value in test [3] (100 ppm) and in test [3] (200 ppm) was 100% throughout.
